Source: patent US8569292B2, “Cyclic inhibitors of 11β-hydroxysteroid dehydrogenase 1” (Vitae Pharmaceuticals, Inc., priority 2008, dated 2013)

Columns and labels:
CYP2C19 = CYP2C19 (Homo sapiens, UniProt P33261); experiment: Biological Test Example 8: CYP2C19 inhibition (diazepam N-demethylation); type: in vitro ADME
11β-HSD1 [1] = target: T1, 11β-HSD1 (Homo sapiens, UniProt P28845); experiment: Biological Test Example 4: microsomal 11β-HSD1 in the presence of 50% human plasma; details: for Shift: IC50 in Test Example 4 divided by IC50 in Test Example 1
T1 sequence (P28845 whole entry): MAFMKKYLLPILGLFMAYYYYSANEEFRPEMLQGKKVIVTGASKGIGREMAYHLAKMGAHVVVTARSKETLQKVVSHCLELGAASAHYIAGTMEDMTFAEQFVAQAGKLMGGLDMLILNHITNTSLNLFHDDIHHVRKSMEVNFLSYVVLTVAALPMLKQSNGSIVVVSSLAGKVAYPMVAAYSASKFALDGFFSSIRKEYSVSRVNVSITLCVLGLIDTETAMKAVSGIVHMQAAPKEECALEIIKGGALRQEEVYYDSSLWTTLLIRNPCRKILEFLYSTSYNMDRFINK

CYP3A4 = CYP3A4 (Homo sapiens, UniProt P08684); experiment: Biological Test Example 6: CYP3A4 inhibition (erythromycin N-demethylation); type: in vitro ADME
CYP3A4, sequence (P08684 whole entry): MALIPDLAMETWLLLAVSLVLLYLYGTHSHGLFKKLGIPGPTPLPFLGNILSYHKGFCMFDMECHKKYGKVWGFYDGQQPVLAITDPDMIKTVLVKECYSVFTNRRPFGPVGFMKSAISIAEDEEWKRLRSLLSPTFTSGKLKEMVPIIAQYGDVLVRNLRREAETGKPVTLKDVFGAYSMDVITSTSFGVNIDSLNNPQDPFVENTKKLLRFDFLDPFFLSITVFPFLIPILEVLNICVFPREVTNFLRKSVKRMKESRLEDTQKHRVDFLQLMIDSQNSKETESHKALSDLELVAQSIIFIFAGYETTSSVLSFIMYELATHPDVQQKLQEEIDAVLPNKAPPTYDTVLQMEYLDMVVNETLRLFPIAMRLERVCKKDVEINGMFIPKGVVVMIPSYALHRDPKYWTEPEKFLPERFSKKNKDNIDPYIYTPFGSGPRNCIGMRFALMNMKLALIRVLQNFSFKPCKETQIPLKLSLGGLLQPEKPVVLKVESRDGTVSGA

CYP2C9 = target: T2, CYP2C9 (Homo sapiens, UniProt P11712); experiment: Biological Test Example 7: CYP2C9 inhibition (naproxen O-demethylation); type: in vitro ADME
T2 construct: purchased Invitrogen 2859; host or cells: insect cells infected with baculovirus (microsomes)
T2 sequence (P11712 whole entry): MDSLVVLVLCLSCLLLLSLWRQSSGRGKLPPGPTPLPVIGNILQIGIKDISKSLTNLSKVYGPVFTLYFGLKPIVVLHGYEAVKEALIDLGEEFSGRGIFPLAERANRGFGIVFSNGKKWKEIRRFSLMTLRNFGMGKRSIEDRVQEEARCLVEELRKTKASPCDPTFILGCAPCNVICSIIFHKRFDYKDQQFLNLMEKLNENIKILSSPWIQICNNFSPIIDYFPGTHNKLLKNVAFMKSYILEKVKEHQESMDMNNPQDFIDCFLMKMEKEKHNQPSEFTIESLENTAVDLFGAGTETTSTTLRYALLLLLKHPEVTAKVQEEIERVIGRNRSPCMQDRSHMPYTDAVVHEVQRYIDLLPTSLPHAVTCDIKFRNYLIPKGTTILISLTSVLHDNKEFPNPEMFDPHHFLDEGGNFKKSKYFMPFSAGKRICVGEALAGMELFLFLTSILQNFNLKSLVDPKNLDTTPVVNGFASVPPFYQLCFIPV

11β-HSD1 [2] = target: T1, 11β-HSD1; experiment: biochemical; details: for inhibition at 0.1 µM: read-out: Average % inhibition at 100 nM
[3] = Biological Test Example 1 IC50 (nM)
[4] = IC50 Range, Biological Test Example 1

CYP2C19, sequence (P33261 whole entry): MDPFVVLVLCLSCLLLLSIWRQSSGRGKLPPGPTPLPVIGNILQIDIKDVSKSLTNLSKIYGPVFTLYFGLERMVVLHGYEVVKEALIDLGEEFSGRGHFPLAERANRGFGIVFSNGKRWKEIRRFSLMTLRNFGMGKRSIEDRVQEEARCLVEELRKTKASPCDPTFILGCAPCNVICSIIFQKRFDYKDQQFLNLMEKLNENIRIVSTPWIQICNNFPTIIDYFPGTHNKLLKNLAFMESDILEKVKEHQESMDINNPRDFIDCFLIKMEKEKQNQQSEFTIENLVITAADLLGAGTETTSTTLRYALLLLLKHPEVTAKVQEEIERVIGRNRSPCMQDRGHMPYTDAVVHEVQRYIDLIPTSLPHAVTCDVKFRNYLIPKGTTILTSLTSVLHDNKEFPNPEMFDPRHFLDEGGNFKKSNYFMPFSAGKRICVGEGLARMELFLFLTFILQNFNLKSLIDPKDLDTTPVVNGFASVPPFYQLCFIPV

IC50 (CYP2C19)	IC50 (11β-HSD1 [1])	Shift (11β-HSD1 [1])	IC50 (CYP3A4)	IC50 (CYP2C9)	IC50 (11β-HSD1 [2]; [3])	IC50 (11β-HSD1 [2]; [4])	inhibition at 0.1 µM (11β-HSD1 [2])	Compound
5.9 µM	0.0057 µM	2.5	45.3 µM	17.8 µM	2.2 nM	< 100 nM	94%	C[C@@H](c1ccc(-c2cnc(C(=O)NC(C)(C)C)nc2)cc1)N1CC[C@](CC(C)(C)O)(c2ccccc2)OC1=O [EXAMPLE 17, N-tert-butyl-5-(4-((S)-1-((S)-6-(2-hydroxy-2-methylpropyl)-2-oxo-6-phenyl-1,3-oxazinan-3-yl)ethyl)phenyl)pyrimidine-2-carboxamide]
10.3 µM	0.0198 µM	10.4	27.1 µM	31.7 µM	1.9 nM	< 100 nM	94.6%	C[C@@H](c1ccc(-c2nc(C(=O)NC3CC3)cs2)cc1)N1CC[C@](CC(C)(C)O)(c2ccccc2)OC1=O [EXAMPLE 19, N-cyclopropyl-2-(4-((S)-1-((S)-6-(2-hydroxy-2-methylpropyl)-2-oxo-6-phenyl-1,3-oxazinan-3-yl)ethyl)phenyl)thiazole-4-carboxamide]
3.6 µM	0.0181 µM	–	5.2 µM	4.5 µM	2.8 nM	< 100 nM	90%	C[C@@H](c1ccc(-c2nc(C(=O)NC(C)(C)C)cs2)cc1)N1CC[C@](CC(C)(C)O)(c2ccccc2)OC1=O [EXAMPLE 22, N-tert-butyl-2-(4-((S)-1-((S)-6-(2-hydroxy-2-methylpropyl)-2-oxo-6-phenyl-1,3-oxazinan-3-yl)ethyl)phenyl)thiazole-4-carboxamide]
> 50 µM	0.0075 µM	6.0	> 50 µM	9.9 µM	1.2 nM	< 100 nM	100%	C[C@@H](c1ccc(-c2ccc(C#N)cn2)cc1)N1CC[C@](CCCO)(c2ccc(F)cc2)OC1=O [EXAMPLE 101, 6-(4-((S)-1-((R)-6-(4-fluorophenyl)-6-(3-hydroxypropyl)-2-oxo-1,3-oxazinan-3-yl)ethyl)phenyl)nicotinonitrile]
35.8 µM	0.0054 µM	3.1	22.8 µM	44.4 µM	1.8 nM	< 100 nM	97.3%	Cc1nccc(-c2ccc([C@H](C)N3CC[C@](CC(C)(C)O)(c4ccccc4)OC3=O)cc2)n1 [EXAMPLE 135, (S)-6-(2-hydroxy-2-methylpropyl)-3-((S)-1-(4-(2-methylpyrimidin-4-yl)phenyl)ethyl)-6-phenyl-1,3-oxazinan-2-one]
9.6 µM	0.012 µM	9.8	11.9 µM	10.2 µM	1.2 nM	< 100 nM	98.6%	Cc1cc(-c2ccc([C@H](C)N3CC[C@](CC(C)(C)O)(c4ccc(F)cc4)OC3=O)cc2)cc(C)n1 [EXAMPLE 144, (S)-3-((S)-1-(4-(2,6-dimethylpyridin-4-yl)phenyl)ethyl)-6-(4-fluorophenyl)-6-(2-hydroxy-2-methylpropyl)-1,3-oxazinan-2-one]
48.6 µM	–	–	> 50 µM	> 50 µM	0.9 nM	< 100 nM	95.2%	C[C@@H](c1ccc(-c2ccc(S(C)(=O)=O)cn2)cc1)N1CC[C@](CC(C)(C)O)(c2ccccc2)OC1=O [EXAMPLE 186, (S)-6-(2-Hydroxy-2-methyl-propyl)-3-{(S)-1-[4-(5-methanesulfonyl-pyridin-2-yl)-phenyl]-ethyl}-6-phenyl-[1,3]oxazinan-2-one]
> 50 µM	–	–	36.4 µM	> 50 µM	–	–	–	C[C@@H](c1ccc(-c2cccc([S+](C)[O-])n2)cc1)N1CC[C@](CC(C)(C)O)(c2ccccc2)OC1=O (stereo partly drawn) [EXAMPLE 191, (S)-6-(2-Hydroxy-2-methyl-propyl)-3-{(S)-1-[4-(6-methanesulfinyl-pyridin-2-yl)-phenyl]-ethyl}-6-phenyl-[1,3]oxazinan-2-one]
15.5 µM	–	–	11.2 µM	10.4 µM	–	–	–	C[C@@H](c1ccc(-c2cnc(C3CC3)nc2)cc1)N1CC[C@](CC(C)(C)O)(c2ccccc2)OC1=O [EXAMPLE 192, 3-{(S)-1-[4-(2-Cyclopropyl-pyrimidin-5-yl)-phenyl]-ethyl}-(S)-6-(2-hydroxy-2-methyl-propyl)-6-phenyl-[1,3]oxazinan-2-one]
33.3 µM	–	–	26.6 µM	24.2 µM	–	–	–	Cc1nn(C)cc1-c1ccc([C@H](C)N2CC[C@](CC(C)(C)O)(c3ccccc3)OC2=O)cc1 [EXAMPLE 193, 3-{(S)-1-[4-(1,3-Dimethyl-1H-pyrazol-4-yl)-phenyl]-ethyl}-(S)-6-(2-hydroxy-2-methyl-propyl)-6-phenyl-[1,3]oxazinan-2-one]

Second part, the compound before the results:

Compound	IC50 (CYP2C19)	IC50 (11β-HSD1 [1])	Shift (11β-HSD1 [1])	IC50 (CYP3A4)	IC50 (CYP2C9)	IC50 (11β-HSD1 [2]; [3])	IC50 (11β-HSD1 [2]; [4])	inhibition at 0.1 µM (11β-HSD1 [2])
C[C@@H](c1ccc(-c2ccc(C(=O)NC(C)(C)C)cn2)cc1)N1CC[C@](CC(C)(C)C#N)(c2ccccc2)OC1=O [EXAMPLE 3, N-tert-butyl-6-(4-((S)-1-((R)-6-(2-cyano-2-methylpropyl)-2-oxo-6-phenyl-1,3-oxazinan-3-yl)ethyl)phenyl)nicotinamide]	3 µM	0.0079 µM	8.0	2.1 µM	2.5 µM	1 nM	< 100 nM	96.8%
C[C@@H](c1ccc(-c2ccc(C3CC3)nn2)cc1)N1CC[C@](CC(C)(C)O)(c2ccccc2)OC1=O [EXAMPLE 4, (S)-3-((S)-1-(4-(6-cyclopropylpyridazin-3-yl)phenyl)ethyl)-6-(2-hydroxy-2-methylpropyl)-6-phenyl-1,3-oxazinan-2-one]	24.2 µM	0.004 µM	5.8	19.6 µM	19.8 µM	0.7 nM	< 100 nM	96.3%
C[C@@H](c1ccc(-c2ccc(C(=O)NC(C)(C)C)nn2)cc1)N1CC[C@](CC(C)(C)C#N)(c2ccccc2)OC1=O [EXAMPLE 9, N-tert-butyl-6-(4-((S)-1-((R)-6-(2-cyano-2-methylpropyl)-2-oxo-6-phenyl-1,3-oxazinan-3-yl)ethyl)phenyl)pyridazine-3-carboxamide]	0.8 µM	0.0051 µM	3.9	48.9 µM	> 50 µM	1.3 nM	< 100 nM	92.4%
C[C@@H](c1ccc(-c2ccc(C(=O)NC3CC3)nn2)cc1)N1CC[C@](CC(C)(C)O)(c2ccccc2)OC1=O [EXAMPLE 10, N-cyclopropyl-6-(4-((S)-1-((S)-6-(2-hydroxy-2-methylpropyl)-2-oxo-6-phenyl-1,3-oxazinan-3-yl)ethyl)phenyl)pyridazine-3-carboxamide]	14.5 µM	0.0075 µM	–	34.9 µM	21.2 µM	2.5 nM	< 100 nM	93.6%
C[C@@H](c1ccc(-c2ccc(C(=O)NC3CC3)nn2)cc1)N1CC[C@](CC(C)(C)C#N)(c2ccccc2)OC1=O [EXAMPLE 11, 6-(4-((S)-1-((R)-6-(2-cyano-2-methylpropyl)-2-oxo-6-phenyl-1,3-oxazinan-3-yl)ethyl)phenyl)-N-cyclopropylpyridazine-3-carboxamide]	3.7 µM	0.0034 µM	3.5	8.7 µM	> 50 µM	1 nM	< 100 nM	91.6%
C[C@@H](c1ccc(-c2ncc(F)cn2)cc1)N1CC[C@](CC(C)(C)O)(c2ccccc2)OC1=O [EXAMPLE 13, (S)-3-((S)-1-(4-(5-fluoropyrimidin-2-yl)phenyl)ethyl)-6-(2-hydroxy-2-methylpropyl)-6-phenyl-1,3-oxazinan-2-one]	> 10 µM	0.0105 µM	–	> 10 µM	> 10 µM	1.8 nM	< 100 nM	92.1%
C[C@@H](c1ccc(-c2cnc(C(=O)NC3CC3)nc2)cc1)N1CC[C@](CC(C)(C)O)(c2ccccc2)OC1=O [EXAMPLE 15, N-cyclopropyl-5-(4-((S)-1-((S)-6-(2-hydroxy-2-methylpropyl)-2-oxo-6-phenyl-1,3-oxazinan-3-yl)ethyl)phenyl)pyrimidine-2-carboxamide]	12.5 µM	0.0042 µM	2.4	> 50 µM	> 50 µM	1.7 nM	< 100 nM	94.1%
C[C@@H](c1ccc(-c2cnc(C(=O)NC3CC3)nc2)cc1)N1CC[C@](CC(C)(C)C#N)(c2ccccc2)OC1=O [EXAMPLE 16, 5-(4-((S)-1-((R)-6-(2-cyano-2-methylpropyl)-2-oxo-6-phenyl-1,3-oxazinan-3-yl)ethyl)phenyl)-N-cyclopropylpyrimidine-2-carboxamide]	6.1 µM	0.0055 µM	6.9	24.9 µM	> 50 µM	0.8 nM	< 100 nM	97.9%
C[C@@H](c1ccc(-c2ccc(S(C)(=O)=O)nc2)cc1)N1CC[C@](CC(C)(C)O)(c2ccccc2)OC1=O [EXAMPLE 183, (S)-6-(2-Hydroxy-2-methyl-propyl)-3-{(S)-1-[4-(6-methanesulfonyl-pyridin-3-yl)-phenyl]-ethyl}-6-phenyl-[1,3]oxazinan-2-one]	47.4 µM	–	–	> 50 µM	45.7 µM	0.93 nM	< 100 nM	96.4%
